The source of these data is patent publication US8765750B2, “Piperazine compound having a PGDS inhibitory effect” (Taiho Pharmaceutical Co., Ltd., priority 2010, dated 2014).

Experiment [1] has as its target human H-PGDS (Homo sapiens (Human), UniProt O60760). The experiment in a line: Hematopoietic prostaglandin D synthase (H-PGDS) inhibiting action. In kind it is biochemical. The note with it: for Inhibition Rate (%) 0.1 μM / inhibition at 0.1 µM: compound at 0.1 μM, relative to the control group, human H-PGDS, [14C] prostaglandin H2 10 μM; for IC50: inhibition concentration at 50% relative to H-PGDS, read-out: IC50; for inhibition at 0.1 µM: read-out: Inhibition Rate (%) 0.1 μM. The protocol: The test was carried out according to the method of Urade, Y. et al. (J. Biol. Chem., 262, 3820-3825, (1987)). More specifically, the reaction mixture (49 μL) containing 100 mM Tris-HCl (pH 8.0), 1 mM reduced glutathione, 0.1 mg/mL γ-globulin, and human H-PGDS (q.s.), and a compound (final concentration: 0.01-100 μM) was preincubated at 25° C. for 5 minutes. A DMSO solution (final concentration: 1%) was added to the solvent control group. Subsequently, 1 μL of [^14C] prostaglandin H2 (final concentration: 10 μM) was added to start the reaction. One minute after the start of the reaction, 250 μL of a reaction stop solution (diethylether/methanol/1 M citric acid (30/4/1) at a temperature of −20° C. was added to stop the reaction. After the reaction was stopped, 50 μL of the upper-layer portion (organic solvent layer) was applied to a TLC plate and developed at −20° C. for 45 minutes (developing solvent: diethylether/methanol/acetic acid (90/2/1)). After drying the TLC plate, the TLC plate was exposed to an imaging plate for 1 to 24 hours, and the radioactivity corresponding to prostaglandin D2 (PGD2) was analyzed using an image analyzer (produced by Fujifilm Corporation). […]

Experiment [2] concerns PGD2 production in the nasal cavities of guinea pigs with antigen-induced rhinitis. Description: PGD2 production inhibiting action in the nasal cavities of guinea pigs with antigen-induced rhinitis. In kind it is in vivo. The conditions noted are these: 30 mg/kg orally 1 hour before induction of rhinitis reaction; washing 30 minutes after induction; * = significance level below 0.05 vs control group. The protocol: A physiological saline solution containing 1 mg/mL of ovalbumin was subcutaneously injected into the back of 5-week-old male Std: Hartley guinea pigs in an amount of 1 mL/body for active sensitization (initial sensitization). One week and two weeks after initial sensitization, 20 μL of a physiological saline solution containing 10 mg/mL of ovalbumin was instilled into each nasal cavity using a micropipette (sensitization by nasal administration). Three weeks after initial sensitization, 20 μL of a physiological saline solution containing 10 mg/mL of ovalbumin was instilled into each nasal cavity using a micropipette to induce a rhinitis reaction.
30 minutes after the induction of a rhinitis reaction, the nasal cavities were washed under pentobarbital sodium anesthesia. A nasal cavity washing liquid (phosphate buffered saline containing 3 mM of EDTA and 10 μM of indomethacin) was flushed using a Peristaltic Pump (Gilson, Inc.) in the direction from the trachea to the upper respiratory tract at a flow rate of 1 mL/min, and the liquid flowing out from the nasal cavities was collected for 1 minute. The collected liquid was centrifuged to separate the supernatant as the nasal cavity washing fluid. The concentration of PGD2 in the nasal cavity washing fluid was determined using an EIA kit (Prostaglandin D2-MOX EIA kit, Cayman Chemical).
The test compound (30 mg/kg) was orally administered 1 hour before induction of a rhinitis reaction. A formula to calculate the rate of decrease in PGD2 in the nasal cavity washing fluid is shown below. Rate (%) of decrease in PGD2 in the nasal cavity washing fluid={(PGD2 concentration in the control group−PGD2 concentration in the compound-administered group)÷(PGD2 concentration in the control group−PGD2 concentration in the normal group)}×100
8 or more cases were obtained from each group to determine whether expression of the PGD2 production inhibiting action occurred, and the PGD2 concentration in the nasal cavity washing fluid was compared between the control group and each compound-administered group. […] When the significance level was below 0.05, the action was considered to be present and indicated by a symbol (*) in the table. Reference Example 18, known as an H-PGDS inhibitor, was used as a positive control substance.

Sequence of human H-PGDS (O60760 whole entry): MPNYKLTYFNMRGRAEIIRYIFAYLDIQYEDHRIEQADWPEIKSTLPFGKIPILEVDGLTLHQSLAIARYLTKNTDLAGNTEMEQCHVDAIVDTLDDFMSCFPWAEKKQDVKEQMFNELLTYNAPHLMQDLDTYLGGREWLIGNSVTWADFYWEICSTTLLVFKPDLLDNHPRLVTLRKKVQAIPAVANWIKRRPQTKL

One may read the IC50 as the midpoint of a concentration-inhibition curve. For the compound “4-(4-(4-((1-methylpyrrol-2-yl)-carbonyl)-1-piperazinecarbamoyl)piperidin-1-yl)-benzoic acid [Compound 1]”, in experiment [1], the “Inhibition Rate (%) 0.1 μM” value is 57.7% and the IC50 turned out to be 67 nM.

One may read the inhibition as the share of the control response that was lost under treatment. Regarding `Cn1cccc1C(=O)N1CCN(C(=O)NC2CCN(c3ccc(C(=O)NCc4cccnc4)cc3)CC2)CC1` [Compound 2, 4-((1-methylpyrrol-2-yl)-carbonyl)-N-(1-(4-(pyridin-3-ylmethylcarbamoyl)phenyl)-piperidin-4-yl)-1-piperazinecarboxamide], the inhibition at 0.1 µM in experiment [1] amounted to 55.2%.

As for `Cn1cccc1C(=O)N1CCN(C(=O)NC2CCN(c3ccc(C(=O)NCCN4CCOCC4)cc3)CC2)CC1` [Compound 3, 4-((1-methylpyrrol-2-yl)-carbonyl)-N-(1-(4-(2-morpholinoethylcarbamoyl)-phenyl)-piperidin-4-yl)-1-piperazinecarboxamide], in experiment [1], the inhibition at 0.1 µM was 69.1% and the IC50 worked out at 27 nM.

`Cn1cccc1C(=O)N1CCN(C(=O)NC2CCN(c3ccc(C(=O)N4CCOCC4)cc3)CC2)CC1` [Compound 4, 4-((1-methylpyrrol-2-yl)-carbonyl)-N-(1-(4-(4-morpholinylcarbonyl)phenyl)-piperidin-4-yl)-1-piperazinecarboxamide]: in experiment [1], the inhibition at 0.1 µM was determined as 69.8% and the IC50 was 31 nM.

On to `Cn1cccc1C(=O)N1CCN(C(=O)NC2CCN(c3ccc(C(=O)N4CCCCC4)cc3)CC2)CC1` [Compound 5, 4-((1-methylpyrrol-2-yl)-carbonyl)-N-(1-(4-(1-piperidinylcarbonyl)phenyl)-piperidin-4-yl)-1-piperazinecarboxamide], for which, in experiment [1], the inhibition at 0.1 µM came to 67.6% and the IC50 is 41 nM. Besides, the “Rate (%) of decrease in PGD2 in the nasal cavity washing fluid” value (“Rate (%) of decrease in PGD2” for short) in experiment [2] is 88.0* %.

Regarding `Cn1cccc1C(=O)N1CCN(C(=O)NC2CCN(c3ccc(C(=O)N4CCCC4)cc3)CC2)CC1` [Compound 6, 4-((1-methylpyrrol-2-yl)-carbonyl)-N-(1-(4-(1-pyrrolidinylcarbonyl)phenyl)-piperidin-4-yl)-1-piperazinecarboxamide], in experiment [1], the inhibition at 0.1 µM is 63% and the IC50 was determined as 52 nM.

On to `Cn1cccc1C(=O)N1CCN(C(=O)NC2CCN(c3ccc(CCn4ccnn4)cc3)CC2)CC1` [Compound 7, 4-((1-methylpyrrol-2-yl)-carbonyl)-N-(1-(4-(2-(1,2,3-triazol-1-yl)-ethyl)-phenyl)-piperidin-4-yl)-1-piperazinecarboxamide], for which, in experiment [1], the inhibition at 0.1 µM was determined as 75% and the 50% inhibitory concentration (IC50) turned out to be 15 nM.

Consider `Cn1cccc1C(=O)N1CCN(C(=O)NC2CCN(c3ccc(CCCn4cncn4)cc3)CC2)CC1` [Compound 8, 4-((1-methylpyrrol-2-yl)-carbonyl)-N-(1-(4-(3-(1,2,4-triazol-1-yl)-propyl)-phenyl)-piperidin-4-yl)-1-piperazinecarboxamide], for which, in experiment [1], the inhibition at 0.1 µM came out at 60.6%.

Regarding `Cc1nc(C)n(CCCc2ccc(N3CCC(NC(=O)N4CCN(C(=O)c5cccn5C)CC4)CC3)cc2)n1` [Compound 9, 4-((1-methylpyrrol-2-yl)-carbonyl)-N-(1-(4-(3-(3,5-dimethyl-1,2,4-triazol-1-yl)-propyl)-phenyl)-piperidin-4-yl)-1-piperazinecarboxamide], in experiment [1], the inhibition at 0.1 µM was 54.2% and the IC50 was determined as 61 nM.

For the compound `Cn1cccc1C(=O)N1CCN(C(=O)NC2CCN(c3ccc(CCCn4ccnn4)cc3)CC2)CC1` [Compound 10, 4-((1-methylpyrrol-2-yl)-carbonyl)-N-(1-(4-(3-(1,2,3-triazol-1-yl)-propyl)-phenyl)-piperidin-4-yl)-1-piperazinecarboxamide], in experiment [1], the inhibition at 0.1 µM is 74.8% and the IC50 is 27 nM.

As to `Cn1cccc1C(=O)N1CCN(C(=O)NC2CCN(c3ccc(C=CC(=O)N4CCOCC4)cc3)CC2)CC1` [Compound 11, 4-((1-methylpyrrol-2-yl)-carbonyl)-N-(1-(4-(3-morpholino-3-oxopropen-1-yl)-phenyl)-piperidin-4-yl)-1-piperazinecarboxamide], the inhibition at 0.1 µM in experiment [1] was found to be 66.7%.

For `Cn1cccc1C(=O)N1CCN(C(=O)NC2CCN(c3ccc(CCC(=O)N4CCOCC4)cc3)CC2)CC1` [Compound 12, 4-((1-methylpyrrol-2-yl)-carbonyl)-N-(1-(4-(3-morpholino-3-oxopropyl)-phenyl)-piperidin-4-yl)-1-piperazinecarboxamide], the inhibition at 0.1 µM in experiment [1] came out at 53.6%.

`Cn1cccc1C(=O)N1CCN(C(=O)C2CCN(c3ccc(C(=O)O)cn3)CC2)CC1` [Compound 13, 6-(4-(4-((1-methylpyrrol-2-yl)-carbonyl)-1-piperazinecarbamoyl)-piperidin-1-yl)-nicotinic acid]: the “Inhibition Rate (%) 0.1 μM” value in experiment [1] is 52.8%.

Take `Cn1cccc1C(=O)N1CCN(C(=O)NC2CCN(c3ccc(C(=O)N4CCOCC4)cn3)CC2)CC1` [Compound 14, 4-((1-methylpyrrol-2-yl)-carbonyl)-N-(1-(5-(4-morpholinylcarbonyl)pyridin-2-yl)-piperidin-4-yl)-1-piperazinecarboxamide]: the inhibition at 0.1 µM in experiment [1] came to 57.2%.

As for `CCn1cccc1C(=O)N1CCN(C(=O)NC2CCN(c3ccc(C(=O)NCCN4CCOCC4)cc3)CC2)CC1` [Compound 15, 4-((1-ethylpyrrol-2-yl)-carbonyl)-N-(1-(4-(2-morpholinoethylcarbamoyl)phenyl)-piperidin-4-yl)-1-piperazinecarboxamide], in experiment [1], the inhibition at 0.1 µM was determined as 69.9% and the 50% inhibitory concentration (IC50) came out at 39 nM.

Regarding `CCn1cccc1C(=O)N1CCN(C(=O)NC2CCN(c3ccc(CCn4ccnn4)cc3)CC2)CC1` [Compound 16, 4-((1-ethylpyrrol-2-yl)-carbonyl)-N-(1-(4-(2-(1,2,3-triazol-1-yl)-ethyl)-phenyl)-piperidin-4-yl)-1-piperazinecarboxamide], the inhibition at 0.1 µM in experiment [1] came out at 68.4%.

In the case of `O=C(NCCN1CCOCC1)c1ccc(N2CCC(NC(=O)N3CCN(C(=O)c4cccs4)CC3)CC2)cc1` [Reference Example 4, 4-((thiophen-2-yl)-carbonyl)-N-(1-(4-(2-morpholinoethylcarbamoyl)-phenyl)-piperidin-4-yl)-1-piperazinecarboxamide, reference compound], the inhibition at 0.1 µM in experiment [1] is 29.2%.

With `O=C(NCCN1CCOCC1)c1ccc(N2CCC(NC(=O)N3CCN(C(=O)c4ccccc4)CC3)CC2)cc1` [Reference Example 11, 4-benzoyl-N-(1-(4-(2-morpholinoethylcarbamoyl)-phenyl)-piperidin-4-yl)-1-piperazinecarboxamide, reference compound], the inhibition at 0.1 µM in experiment [1] amounted to 30%.

For the compound `O=C(Nc1nc2ccc(Br)cc2s1)N1CCN(C(=O)c2cccc(F)c2)CC1` [Reference Example 12, 4-(3-fluorobenzoyl)-piperazine-1-carboxylic acid-(6-bromobenzothiazol-2-yl)-amide, reference compound], the inhibition at 0.1 µM in experiment [1] is 45.1%. In experiment [2], the “Rate (%) of decrease in PGD2” value worked out at 7.9%.

`Cc1cc2nc(NC(=O)N3CCN(C(=O)c4cccc(F)c4)CC3)sc2cc1C` [Reference Example 13, 4-(3-fluorobenzoyl)-piperazine-1-carboxylic acid-(5,6-dimethylbenzothiazol-2-yl)-amide, reference compound]: the inhibition at 0.1 µM in experiment [1] was determined as 31.6%. Moreover, in experiment [2], the “Rate (%) of decrease in PGD2” value stood at 3.9%.

Regarding `CON(C)C(=O)c1[nH]c(C)c(-c2nc3ccc(C(=O)c4ccccc4)cc3[nH]2)c1C` [Reference Example 18], in experiment [2], the “Rate (%) of decrease in PGD2” value was 77.0* %.
